Measurements from ChEMBL document CHEMBL1201862, “PubChem BioAssay data set” (2004).
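1) Cells in 96-well plates. 2) Compound, 48 h, 5 concentrations. 3) Linear interpolation between surrounding doses. 4) Unreached endpoint = highest concentration. At the GI50, growth is halved.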 Calls of active or inactive are those of the source. Rule as the data show it: active = GI50 up to about 1.1 µM and inactive = higher.

Assays:
Test in all cases: NCI tumour cell line growth inhibition, 48 h
M14 = tested on: M14
A549 = tested on: A549
SN12C = tested on: SN12C
SF-539 = tested on: SF-539
HCT-116 = tested on: HCT-116
HOP-62 = tested on: HOP-62
MCF7 = tested on: MCF7
SF-268 = tested on: SF-268
A498 = tested on: A498
ACHN = tested on: ACHN
SF-295 = tested on: SF-295
OVCAR-3 = tested on: OVCAR-3
SK-OV-3 = tested on: SK-OV-3
SK-MEL-5 = tested on: SK-MEL-5
IGROV-1 = tested on: IGROV-1
NCI-H226 = tested on: NCI-H226
MOLT-4 = tested on: MOLT-4
PC-3 = tested on: PC-3
COLO 205 = tested on: COLO 205

Structure (SMILES)	GI50 (M14)	GI50 (A549)	GI50 (SN12C)	GI50 (SF-539)	GI50 (HCT-116)	GI50 (HOP-62)	GI50 (MCF7)	GI50 (SF-268)	GI50 (A498)	GI50 (ACHN)	GI50 (SF-295)	GI50 (OVCAR-3)	GI50 (SK-OV-3)	GI50 (SK-MEL-5)	GI50 (IGROV-1)	GI50 (NCI-H226)	GI50 (MOLT-4)	GI50 (PC-3)	GI50 (COLO 205)
COc1ccccc1NC(=O)C(=O)C(C#N)CC(C)(C)C=O (stereo not drawn)	> 100 µM (inactive)	> 100 µM (inactive)	> 100 µM (inactive)	> 100 µM (inactive)	> 100 µM (inactive)	> 100 µM (inactive)	> 100 µM (inactive)	> 100 µM (inactive)	> 100 µM (inactive)	> 100 µM (inactive)	> 100 µM (inactive)	> 100 µM (inactive)	> 100 µM (inactive)	> 100 µM (inactive)	> 100 µM (inactive)	> 100 µM (inactive)	> 100 µM (inactive)	> 100 µM (inactive)	–
Nc1nc(Nc2ccccc2)sc1C(=O)c1ccco1	20.9 µM (inactive)	17.1 µM (inactive)	17.7 µM (inactive)	15.7 µM (inactive)	12.8 µM (inactive)	27.5 µM (inactive)	7.74 µM (inactive)	26.7 µM (inactive)	17.8 µM (inactive)	19.2 µM (inactive)	–	5.69 µM (inactive)	28.6 µM (inactive)	11.1 µM (inactive)	15.6 µM (inactive)	21.3 µM (inactive)	13 µM (inactive)	22.6 µM (inactive)	13.2 µM (inactive)
CN(C)c1ccc(/C=C(\NC(=O)c2ccccc2)c2nc3ccccc3c(=O)o2)cc1	> 100 µM (inactive)	> 100 µM (inactive)	> 100 µM (inactive)	> 100 µM (inactive)	> 100 µM (inactive)	71.1 µM (inactive)	70.5 µM (inactive)	> 100 µM (inactive)	> 100 µM (inactive)	> 100 µM (inactive)	> 100 µM (inactive)	> 100 µM (inactive)	> 100 µM (inactive)	91.4 µM (inactive)	> 100 µM (inactive)	> 100 µM (inactive)	> 100 µM (inactive)	> 100 µM (inactive)	> 100 µM (inactive)
C=C=C(C)[Si](C)(C)C	> 100 µM (inactive)	> 100 µM (inactive)	> 100 µM (inactive)	> 100 µM (inactive)	> 100 µM (inactive)	> 100 µM (inactive)	> 100 µM (inactive)	> 100 µM (inactive)	> 100 µM (inactive)	> 100 µM (inactive)	> 100 µM (inactive)	> 100 µM (inactive)	> 100 µM (inactive)	> 100 µM (inactive)	71.1 µM (inactive)	> 100 µM (inactive)	> 100 µM (inactive)	> 100 µM (inactive)	> 100 µM (inactive)
CC(CS(=O)(=O)Cc1ccccc1)C(N)=O (stereo not drawn)	> 100 µM (inactive)	> 100 µM (inactive)	> 100 µM (inactive)	> 100 µM (inactive)	> 100 µM (inactive)	> 100 µM (inactive)	> 100 µM (inactive)	> 100 µM (inactive)	> 100 µM (inactive)	> 100 µM (inactive)	> 100 µM (inactive)	> 100 µM (inactive)	> 100 µM (inactive)	> 100 µM (inactive)	> 100 µM (inactive)	> 100 µM (inactive)	> 100 µM (inactive)	> 100 µM (inactive)	> 100 µM (inactive)
Cn1c(=O)c2c(nc3n2CC(C(=O)O)N3)n(C)c1=O (stereo not drawn)	> 100 µM (inactive)	> 100 µM (inactive)	> 100 µM (inactive)	> 100 µM (inactive)	> 100 µM (inactive)	> 100 µM (inactive)	> 100 µM (inactive)	> 100 µM (inactive)	> 100 µM (inactive)	> 100 µM (inactive)	> 100 µM (inactive)	> 100 µM (inactive)	> 100 µM (inactive)	> 100 µM (inactive)	> 100 µM (inactive)	> 100 µM (inactive)	0.036 µM (active)	> 100 µM (inactive)	> 100 µM (inactive)
O=C1CC2(CCC(O)(c3ccc(Cl)cc3)C(C(=O)c3ccc(Cl)cc3)C2)C(=O)c2ccccc2N1 (stereo not drawn)	18.2 µM (inactive)	12.5 µM (inactive)	5.68 µM (inactive)	3.42 µM (inactive)	6.17 µM (inactive)	3.35 µM (inactive)	22.7 µM (inactive)	3.1 µM (inactive)	17.3 µM (inactive)	3.64 µM (inactive)	6.47 µM (inactive)	> 100 µM (inactive)	12.4 µM (inactive)	11.4 µM (inactive)	> 26.3 µM (inactive)	12.7 µM (inactive)	2.12 µM (inactive)	> 100 µM (inactive)	5.74 µM (inactive)
N=C(N)NCCCC(NC(=O)c1c2ccccc2nc2ccccc12)C(=O)O (stereo not drawn)	> 100 µM (inactive)	> 100 µM (inactive)	> 100 µM (inactive)	> 100 µM (inactive)	> 100 µM (inactive)	> 100 µM (inactive)	> 100 µM (inactive)	> 100 µM (inactive)	> 100 µM (inactive)	> 100 µM (inactive)	> 100 µM (inactive)	> 100 µM (inactive)	> 100 µM (inactive)	> 100 µM (inactive)	> 100 µM (inactive)	> 100 µM (inactive)	> 100 µM (inactive)	> 100 µM (inactive)	> 100 µM (inactive)
N=C(N)N/N=C/c1cc(Cl)cc(Cl)c1O	54.5 µM (inactive)	> 100 µM (inactive)	49.3 µM (inactive)	37.3 µM (inactive)	57 µM (inactive)	> 100 µM (inactive)	44.6 µM (inactive)	45.9 µM (inactive)	51.1 µM (inactive)	56.6 µM (inactive)	58.1 µM (inactive)	67.3 µM (inactive)	> 100 µM (inactive)	37.4 µM (inactive)	> 100 µM (inactive)	46.6 µM (inactive)	50.4 µM (inactive)	36.7 µM (inactive)	34.2 µM (inactive)
CCOC(=O)/C(C#N)=C/c1ccc(CO)o1	> 100 µM (inactive)	> 100 µM (inactive)	> 100 µM (inactive)	> 100 µM (inactive)	> 100 µM (inactive)	> 100 µM (inactive)	> 100 µM (inactive)	> 100 µM (inactive)	> 100 µM (inactive)	> 100 µM (inactive)	> 100 µM (inactive)	> 100 µM (inactive)	> 100 µM (inactive)	> 100 µM (inactive)	> 100 µM (inactive)	> 100 µM (inactive)	> 100 µM (inactive)	> 100 µM (inactive)	> 100 µM (inactive)
COc1cccc2c(N)c3cccc(C(=O)NCCN(C)C)c3nc12	0.432 µM (active)	0.0233 µM (active)	0.0389 µM (active)	0.135 µM (active)	0.0748 µM (active)	0.0578 µM (active)	0.0146 µM (active)	0.0659 µM (active)	0.281 µM (active)	0.0991 µM (active)	0.297 µM (active)	0.369 µM (active)	0.233 µM (active)	0.367 µM (active)	0.22 µM (active)	0.11 µM (active)	< 0.01 µM (active)	0.326 µM (active)	0.13 µM (active)
O=C(O)C1OC1(c1cccc(Cl)c1)c1ccccc1Cl (stereo not drawn)	18.8 µM (inactive)	35.8 µM (inactive)	23 µM (inactive)	25.9 µM (inactive)	19 µM (inactive)	23.9 µM (inactive)	29.4 µM (inactive)	20.6 µM (inactive)	79.1 µM (inactive)	31.7 µM (inactive)	25.7 µM (inactive)	16.1 µM (inactive)	22.5 µM (inactive)	20 µM (inactive)	34.9 µM (inactive)	38.2 µM (inactive)	27.5 µM (inactive)	21.8 µM (inactive)	53.3 µM (inactive)
N#Cc1cnn2cc[nH]c12	> 100 µM (inactive)	> 100 µM (inactive)	> 100 µM (inactive)	10 µM (inactive)	> 100 µM (inactive)	> 100 µM (inactive)	> 100 µM (inactive)	> 100 µM (inactive)	> 100 µM (inactive)	> 100 µM (inactive)	> 100 µM (inactive)	> 100 µM (inactive)	> 100 µM (inactive)	> 100 µM (inactive)	> 100 µM (inactive)	> 100 µM (inactive)	> 100 µM (inactive)	> 100 µM (inactive)	> 100 µM (inactive)
O=C(O)C(Cc1c[nH]c2ccccc12)C(=O)NO (stereo not drawn)	> 100 µM (inactive)	> 100 µM (inactive)	> 100 µM (inactive)	> 100 µM (inactive)	> 100 µM (inactive)	> 100 µM (inactive)	> 100 µM (inactive)	> 100 µM (inactive)	> 100 µM (inactive)	> 100 µM (inactive)	> 100 µM (inactive)	96.8 µM (inactive)	> 100 µM (inactive)	> 100 µM (inactive)	> 100 µM (inactive)	> 100 µM (inactive)	> 100 µM (inactive)	64.1 µM (inactive)	> 100 µM (inactive)
CC(=O)Nc1ccc(-c2nc3ccccc3s2)cc1Br	77.4 µM (inactive)	> 86.9 µM (inactive)	> 78.9 µM (inactive)	27.3 µM (inactive)	20.5 µM (inactive)	7.53 µM (inactive)	0.141 µM (active)	44.3 µM (inactive)	4.54 µM (inactive)	63.4 µM (inactive)	30.8 µM (inactive)	0.305 µM (active)	23.2 µM (inactive)	> 100 µM (inactive)	0.0124 µM (active)	2.42 µM (inactive)	> 100 µM (inactive)	> 100 µM (inactive)	> 86.7 µM (inactive)
